Data from patent publication US12213957B2, “Use of aminoacetonitrile compounds for the treatment of infection and disease” (PITNEY PHARMACEUTICALS PTY LIMITED, priority 2020, dated 2025).
Values joined by “and” are separate entries in the source; they are usually repeats but may differ in a detail not shown here. Equal entries are not always repeated. Where two headings read alike, the source gives them in different places.

Legend:
[1] = tested on: ribosomal protein S6 kinase beta-1 (RPS6KB1); test: RPS6KB1 phosphorylation levels in patients' PBMCs (mTOR signalling); assay type: in vivo, human; conditions: 5 mg/kg bw daily
[2] = tested on: cancer; test: Phase 1b clinical trial, RECIST1.1 by computerised tomography; assay type: in vivo, human; conditions: monepantel as Zolvix daily 5 mg/kg bw
Procedure: (§1) In a Phase 1 b clinical trial, monepantel administered as Zolvix daily to four human patients (PA02, PA04, PA06 and PA07) at 5 mg/kg bw provided an anticancer effect by computerised tomography (CT) scanning according to RECIST1.1 criteria. […] Evidence of mTOR pathway signalling inhibition in these patients was supported by the finding of decreased eurkaryotic translation initiation factor 4E-binding protein 1 (EIF-4EBP1) phosphorylation levels from the preparations of PBMCs from PA02, PA04 and PA06 (FIG. 1B). EIF-4EIBP1 phosphorylation levels were not assayed from preparations of PBMCs from PA07.

[3] = tested on: VERO cells
[4] = Blood plasma levels in pet dogs of the veterinary trial; assay type: in vivo, dog; conditions: plasma, oral, 179 mg/kg bw; dog 003-001 that achieved a partial response; read-out: monepantel blood plasma level
Procedure: In a Phase 2 veterinary clinical trial, monepantel was administered as tablets daily to six pet dog patients (dog identification numbers: 001-001, 001-002, 001-003, 003-001, 004-002 and 004-003) with treatment naïve B cell lymphoma at a target dose of 179 mg/kg bw. Superficial tumour lesions were measured with calipers, while lesions within the body were assessed by X-Ray, ultrasound, computer tomography (CT) and/or physical palpitation. Baseline Day 0 (D0) predose caliper, X-Ray, ultrasound and CT measurements where available as well as a complete physical examination were recorded.
An inverse correlation between RECIST1.1 response and blood plasma levels of monepantel and monepantel sulfone was evident. The one dog (003-001) that achieved a partial response, recorded monepantel and […] of 0.1 and 6.7 μM, respectively.

[5] = tested on: VERO cells infected with SARS-CoV-2; assay type: cell-based; conditions: approximately 5 μM MPL
[6] = tested on: SARS-CoV-2; assay type: cell-based; conditions: Calu-3 human cells, concentrations from 3.00 μM down to 0.013 μM
[7] = tested on: SARS-CoV-2; assay type: cell-based; conditions: 0.032 μM and 0.064 μM compared to 40 μM and 8 μM values, p<0.05 and <0.001
[8] = tested on: treatment naïve B cell lymphoma; test: Phase 2 veterinary clinical trial, RECIST 1.1 tumour response; assay type: in vivo, dog
Procedure: Superficial tumour lesions were measured with calipers, while lesions within the body were assessed by X-Ray, ultrasound, computer tomography (CT) and/or physical palpitation. Baseline Day 0 (D0) predose caliper, X-Ray, ultrasound and CT measurements where available as well as a complete physical examination were recorded.

[9] = tested on: SARS-CoV-2; assay type: cell-based; conditions: VERO cells
[10] = tested on: VERO cells; test: cells; conditions: Chlorocebus sabaeus, 120 h, read-out: 1050 (estimated from the 8 μM and 40 μM values)
[11] = Blood plasma levels in human patients; assay type: in vivo; conditions: monepantel as Zolvix 5 mg/kg bw daily
Procedure: as §1
Blood plasma monepantel and monepantel sulfone levels of all four patients were recorded at intervals throughout treatment (Table 2).

[12] = tested on: eurkaryotic translation initiation factor 4E-binding protein 1 (EIF-4EBP1); test: EIF-4EBP1 phosphorylation levels in patients' PBMCs (mTOR signalling); assay type: in vivo, human; conditions: 5 mg/kg bw daily
Procedure: as §1

[13] = PA02, after three days of treatment
[14] = PA04, after three days of treatment
[15] = PA06, after three days of treatment
[16] = pet dogs, monepantel tablets daily, target dose 179 mg/kg bw, one value per dog, 179 mg/kg
[17] = six pet dogs, tablets daily, 179 mg/kg bw

SMILES: C[C@](C#N)(COc1cc(C#N)ccc1C(F)(F)F)NC(=O)c1ccc(SC(F)(F)F)cc1 [MPL, N-[(1S)-1-Cyano-2-(5-cyano-2-trifluoromethyl-phenoxy)-1-methyl-ethyl]-4-trifluoromethylsulfanyl-benzamide]
- reduction of PBMC RPS6KB1 phosphorylation levels relative to pre-treatment ([1]; PA02, PA06 and PA07, after seven days of treatment): 85.6%
- reduction of PBMC RPS6KB1 phosphorylation levels relative to pre-treatment [1, 13]: 27.3%
- reduction of PBMC RPS6KB1 phosphorylation levels relative to pre-treatment [1, 14]: 28.6%
- reduction of PBMC RPS6KB1 phosphorylation levels relative to pre-treatment [1, 15]: 81.2%
- mTOR signalling (decreased RPS6KB1 phosphorylation in PBMCs) ([1]; four patients): inhibited in all four patients
- RECIST1.1 response by CT ([2]; patient PA07): progressive disease
- RECIST1.1 response by CT ([2]; patients PA02, PA04 and PA06): stable disease
- effect upon SARS-CoV-2 infected VERO cells (LDH) [3]: no apparent effect
- toxicity caused by SARS-CoV-2 [3]: appeared to increase toxicity
- toxicity to Vero cells (LDH) [3]: significant toxicity
- toxicity to uninfected VERO cells [3]: some toxicity
- SARS-CoV-2 toxicity ([3]; African green monkey): does not apparently increase SARS-CoV-2 toxicity
- concentration at 14 day [4]: 100 nM
- protection against cell death following infection with SARS-CoV-2 [5]: protected VERO cell against cell death
- SARS-CoV-2 infectivity (TCID50) [6]: reduced SARS-CoV-2 infectivity
- SARS-CoV-2 RNA concentrations in the media (qPCR) [7]: significantly decrease
- RECIST 1.1 tumour response D14 Target Lesions [8, 16]: PR (PR = partial response)
- RECIST 1.1 tumour response Overall [8, 16]: PR (PR = partial response)
- target superficial lymph node caliper measurements at D28 ([8]; pet dogs, tablets daily, 179 mg/kg bw): four of four dogs achieving stable target superficial lymph node caliper measurements
- RECIST 1.1 responses of the six dogs at D14 [8, 17]: One dog achieved a partial response, four dogs achieved stable disease and one dog had progressive disease
- anti-cancer effect at D14 [8, 17]: strong anti-cancer effect
- SARS-CoV-2 infectivity (TCID50) compared to no treatment ([9]; MPL 0.064 μM): significantly reduces SARS-CoV-2 infectivity
- SARS-CoV-2 infectivity (TCID50, repeat experiment) compared to no treatment ([9]; MPL 0.137 μM (greatest effect)): significantly reduces SARS-CoV-2 infectivity
- SARS-CoV-2 infectivity (TCID50, repeat experiment) ([9]; MPL 0.411 μM and 0.046 μM): significantly reduced SARS-CoV-2 infectivity
- SARS-CoV-2 infectivity (TCID50) ([9]; MPL 0.32, 1.6 and 8.0 μM): did not significantly reduce
- IC50 [10]: ~30 µM
- Blood plasma level of monepantel, Average ([11]; 0.25 h, average of patients): 0.010 ∞M
- Blood plasma level of monepantel ([11]; 0.25 h, individual patients): 6.46 ng/ml and 0 ng/ml (2×) and 12.2 ng/ml
- Blood plasma level of monepantel, Average ([11]; 0.5 h, average of patients): 0.051 ∞M
- Blood plasma level of monepantel ([11]; 0.5 h, individual patients): 39.4 ng/mL and 16.1 ng/mL and 10.5 ng/mL and 31 ng/mL
- Blood plasma level of monepantel, Average ([11]; 1 h, average of patients): 0.137 ∞M
- Blood plasma level of monepantel ([11]; 1 h, individual patients): 110 ng/mL and 46.2 ng/mL and 42.1 ng/mL and 61 ng/mL
- Blood plasma level of monepantel, Average ([11]; 2 h, average of patients): 0.298 ∞M
- Blood plasma level of monepantel ([11]; 2 h, individual patients): 99.1 ng/mL and 171 ng/mL and 112 ng/mL
- Blood plasma level of monepantel, Average ([11]; 4 h, average of patients): 0.353 ∞M
- Blood plasma level of monepantel ([11]; 4 h, individual patients): 104 ng/mL and 234 ng/mL and 144 ng/mL and 187 ng/mL
- Blood plasma level of monepantel, Average ([11]; 8 h, average of patients): 0.145 ∞M
- Blood plasma level of monepantel ([11]; 8 h, individual patients): 62.1 ng/mL and 63.6 ng/mL and 108 ng/mL and 40.2 ng/mL
- Blood plasma level of monepantel, Average ([11]; 12 h, average of patients): 0.064 ∞M
- Blood plasma level of monepantel ([11]; 12 h, individual patients): 26.9 ng/mL and 24.1 ng/mL and 52.5 ng/mL and 18.6 ng/mL
- Blood plasma level of monepantel, Average ([11]; 24 h, average of patients): 0.030 ∞M
- Blood plasma level of monepantel ([11]; 24 h, individual patients): 13.7 ng/mL and 11.6 ng/mL and 21.8 ng/mL and 9.95 ng/mL
- Blood plasma level of monepantel, Average ([11]; pre-dose D3, average of patients): 10.7 ng/ml and 0.023 ∞M
- Blood plasma level of monepantel ([11]; pre-dose D3, individual patients): 16.4 ng/mL and 8.07 ng/mL and 9.99 ng/mL and 8.33 ng/mL
- Blood plasma level of monepantel, Average ([11]; pre-dose D4, average of patients): 9.2 ng/ml and 0.019 ∞M
- Blood plasma level of monepantel ([11]; pre-dose D4, individual patients): 14.7 ng/mL and 6.98 ng/mL and 8.65 ng/mL and 6.44 ng/mL
- Blood plasma level of monepantel, Average ([11]; pre-dose D5, average of patients): 6.9 ng/ml and 0.015 ∞M
- Blood plasma level of monepantel ([11]; pre-dose D5, individual patients): 9.94 ng/mL and 6.86 ng/mL and 5.72 ng/mL and 5.03 ng/mL
- Blood plasma level of monepantel, Average ([11]; pre-dose D6, average of patients): 6.3 ng/ml and 0.013 ∞M
- Blood plasma level of monepantel ([11]; pre-dose D6, individual patients): 9.99 ng/mL and 7.22 ng/mL and 4.62 ng/mL and 3.34 ng/mL
- Blood plasma level of monepantel, Average ([11]; pre-dose D7, average of patients): 5.4 ng/ml and 0.011 ∞M
- Blood plasma level of monepantel ([11]; pre-dose D7, individual patients): 7.42 ng/mL and 6.39 ng/mL and 4.58 ng/mL and 3.32 ng/mL
- Blood plasma level of monepantel, Average ([11]; pre-dose D14, average of patients): 4.4 ng/ml and 0.009 ∞M
- Blood plasma level of monepantel ([11]; pre-dose D14, individual patients): 4.85 ng/mL and 5.25 ng/mL and 3.23 ng/mL
- Blood plasma level of monepantel, Average ([11]; pre-dose D21, average of patients): 3.8 ng/ml and 0.008 ∞M
- Blood plasma level of monepantel ([11]; pre-dose D21, individual patients): 4.34 ng/mL and 3.16 ng/mL
- Blood plasma level of monepantel, Average ([11]; pre-dose D28, average of patients): 3.8 ng/ml and 0.008 ∞M
- Blood plasma level of monepantel ([11]; pre-dose D28, individual patients): 4.65 ng/mL and 2.96 ng/mL
- concentration at 0.25 h ([11]; plasma, oral, 5 mg/kg bw, 0.25 h, average of patients, read-out: Blood plasma level of monepantel, Average): 4.7 ng/mL
- concentration at 0.5 h ([11]; plasma, oral, 5 mg/kg bw, 0.5 h, average of patients, read-out: Blood plasma level of monepantel, Average): 24.3 ng/mL
- concentration at 1 h ([11]; plasma, oral, 5 mg/kg bw, 1 h, average of patients, read-out: Blood plasma level of monepantel, Average): 64.8 ng/mL
- concentration at 2 h ([11]; plasma, oral, 5 mg/kg bw, 2 h, average of patients, read-out: Blood plasma level of monepantel, Average): 141 ng/mL
- concentration at 2 h ([11]; plasma, oral, 5 mg/kg bw, 2 h, individual patients, read-out: Blood plasma level of monepantel): 183 ng/mL
- concentration at 4 h ([11]; plasma, oral, 5 mg/kg bw, 4 h, average of patients, read-out: Blood plasma level of monepantel, Average): 167 ng/mL
- concentration at 8 h ([11]; plasma, oral, 5 mg/kg bw, 8 h, average of patients, read-out: Blood plasma level of monepantel, Average): 68.5 ng/mL
- concentration at 12 h ([11]; plasma, oral, 5 mg/kg bw, 12 h, average of patients, read-out: Blood plasma level of monepantel, Average): 30.5 ng/mL
- concentration at 24 h ([11]; plasma, oral, 5 mg/kg bw, 24 h, average of patients, read-out: Blood plasma level of monepantel, Average): 14.3 ng/mL
- reduction of PBMC EIF-4EBP1 phosphorylation levels relative to pre-treatment ([12]; PA02, after seven days of treatment): 85.6%
- reduction of PBMC EIF-4EBP1 phosphorylation levels relative to pre-treatment [12, 13]: 38.5%
- reduction of PBMC EIF-4EBP1 phosphorylation levels relative to pre-treatment [12, 14]: 96.6%
- reduction of PBMC EIF-4EBP1 phosphorylation levels relative to pre-treatment [12, 15]: 34.4%
